Patent publication US20210255193A1, “LYSINE REACTIVE PROBES AND USES THEREOF” (The Scripps Research Institute, priority 2017, published 2021)

How the values were obtained:
[1] = biological target: T1, AGFG1 Arf-GAP domain and FG repeat-containing protein 1 (Homo sapiens, UniProt P52594); assay: competitive isoTOP-ABPP; assay type: binding; set-up: key to isoTOP-ABPP reactivity ratio at lysine P52594_K134: R = MS1 peak area ratio, DMSO (heavy) / compound-treated (light); settings: 50 uM, in vitro; for R value (DMSO/fragment) for probe 1 labeling: P52594_K134; for R value (DMSO/fragment) for probe 1 labeling / isoTOP-ABPP reactivity ratio at lysine P52594_K134: 231 sol; for isoTOP-ABPP ratio (R) at liganded lysine P52594_K134: sol, 231
T1 construct: isoTOP-ABPP experiments performed in cell lysates (in vitro); endogenous in cells; host or cells: soluble proteome of human cancer cell lines (MDA-MB-231, Ramos, Jurkat)
T1 sequence (P52594 1-562): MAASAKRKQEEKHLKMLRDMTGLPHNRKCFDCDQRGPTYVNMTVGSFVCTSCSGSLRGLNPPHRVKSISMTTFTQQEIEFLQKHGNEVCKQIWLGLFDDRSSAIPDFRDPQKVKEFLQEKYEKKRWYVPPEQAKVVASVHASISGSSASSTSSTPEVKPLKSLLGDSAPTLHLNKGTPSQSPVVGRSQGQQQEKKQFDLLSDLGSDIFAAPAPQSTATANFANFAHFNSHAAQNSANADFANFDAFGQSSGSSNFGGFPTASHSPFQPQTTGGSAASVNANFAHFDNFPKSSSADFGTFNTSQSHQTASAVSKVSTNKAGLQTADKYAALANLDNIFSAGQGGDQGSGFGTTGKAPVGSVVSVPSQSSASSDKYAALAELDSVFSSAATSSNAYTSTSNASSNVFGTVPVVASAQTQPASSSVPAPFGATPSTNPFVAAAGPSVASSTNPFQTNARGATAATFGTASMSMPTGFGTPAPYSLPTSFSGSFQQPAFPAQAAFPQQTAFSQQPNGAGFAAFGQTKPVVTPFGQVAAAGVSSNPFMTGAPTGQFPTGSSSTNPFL
Description: (§1) In vitro covalent fragment treatment for isoTOP-ABPP. All compounds were made up as solutions in DMSO (100×) and were used at a final concentration of 50 μM for activated esters and 100 μM for guanidinylating agents. For each profiling sample, 0.5 ml of lysate was treated with 5 μl of the 100× compound stock solution or 5 μl of DMSO. Samples were treated with activated esters for
(§2) STP-alkyne labeling and click chemistry. For concentration-dependent reactivity measurements by isoTOP-ABPP, 0.5 ml proteome aliquots were treated at ambient temperature with 1 mM STP-alkyne 1 (5 μl of 100 mM stock in DMSO) and 0.1 mM STP alkyne 1 (5 μl of 10 mM stock in DMSO), respectively. For competitive isoTOP-ABPP, after in vitro fragment treatment (detailed above), the samples were labeled for 1 h at ambient temperature with 0.1 mM STP-alkyne 1 (5 μl of 10 mM stock in DMSO). Samples were conjugated by copper-mediated azide-alkyne cycloaddition (CuAAC) to either the light (1 mM STP-alkyne or fragment treated) or heavy (0.1 mM STP-alkyne or DMSO treated) TEV tags (10 μl of 5 mM stocks in DMSO, final concentration=100 μM) using tris(2-carboxyethyl)phosphine hydrochloride
(§3) R value calculation and processing. The ratios of light and heavy MS1 peaks for each unique peptide were quantified with a CIMAGE software using default parameters (3 MS1 acquisitions per peak and signal to noise threshold set to 2.5). For reactivity measurements by isoTOP-ABPP, the R value was calculated from the ratio of MS1 peak areas, comparing the 1 mM STP alkyne sample (light TEV tag) with the 0.1 mM STP alkyne sample (heavy TEV tag). For competitive isoTOP-ABPP, the R value was calculated from the ratio of MS1 peak areas, comparing the DMSO treated sample (heavy TEV tag) with the compound treated sample (light TEV tag). […] Ratios for unique peptide entries are calculated for each experiment; overlapping peptides with the same modified lysine (for example, different charge states, MudPIT chromatographic steps or tryptic termini) are grouped together and the median ratio is reported as the final ratio (R). The peptide ratios reported by CIMAGE were further filtered to ensure the removal or correction of low-quality ratios in each individual data set. The quality filters applied were the following: removal of half tryptic peptides; for ratios with high standard deviations from the median (90% of the median or above) the lowest ratio was taken instead of the median; removal of peptides with R=20 and only a single MS2 event triggered during the elution of the parent ion; manual annotation of all the peptides with ratios of 20, removing any peptides with low quality elution profiles that remained after the previous curation steps (only done for competitive isoTOP-ABPP).
(§4) Cross-data processing for fragment screening. For compound treated samples, biological replicates of the same condition were averaged, if the standard deviation was below 60% of the mean; otherwise, for lysines with at least one R value <4 for a particular compound, the lowest value of the ratio set was taken. For lysines, where all R values for a particular compound were ≥4, the average was reported. For peptides containing several possible modified lysines, the lysine with the highest number of quantification events was used for analysis and the remaining, redundant peptides were reported as alternative modification sites. Peptides included in the aggregate dataset (those used for further bioinformatics and statistical analyses) were required to have been quantified in 2 experiments for competitive isoTOP-ABPP. Lysines were categorized as liganded, if they had at least one ratio R≥4 (hit fragments). For liganded lysines with R=20 for all liganding events, lysines were required to have been quantified with R=20 in two separate experiments and were further required to have been quantified with R<20 in one additional experiment.

[2] = biological target: T2, ABCE1 ATP-binding cassette sub-family E member 1 (Homo sapiens, UniProt P61221); assay: competitive isoTOP-ABPP; settings: for R value (DMSO/fragment) for probe 1 labeling / isoTOP-ABPP reactivity ratio at lysine P61221_K478 / isoTOP-ABPP reactivity ratio at lysine P61221_K191 / isoTOP-ABPP ratio (R) at liganded lysine P61221_K191 / isoTOP-ABPP ratio (R) at liganded lysine P61221_K478: 50 uM, in vitro; for R value (DMSO/fragment) for probe 1 labeling / isoTOP-ABPP reactivity ratio at lysine P61221_K478 / isoTOP-ABPP reactivity ratio at lysine P61221_K191: 231 sol; for isoTOP-ABPP ratio (R) at liganded lysine P61221_K191 / isoTOP-ABPP ratio (R) at liganded lysine P61221_K478: sol, 231
T2 construct: isoTOP-ABPP experiments performed in cell lysates (in vitro); endogenous in cells; host or cells: soluble proteome of human cancer cell lines (MDA-MB-231, Ramos, Jurkat)
Description: as §1, §2, §3, §4

O=C(CCc1cn(-c2ccccc2)nc1-c1ccccc1)Oc1c(F)c(F)c(F)c(F)c1F [fragment 19, Pentafluorophenyl 3-(1,3-diphenyl-1H-pyrazol-4-yl)propanoate]
R value (DMSO/fragment) for probe 1 labeling [1]: 1.0
R value (DMSO/fragment) for probe 1 labeling ([2]; P61221_K191): 0.9
R value (DMSO/fragment) for probe 1 labeling ([2]; P61221_K478): 1.1

O=C(Oc1c(F)c(F)c(F)c(F)c1F)C(c1ccccc1)c1ccccc1 [fragment 20, Pentafluorophenyl 2,2-diphenylacetate]
R value (DMSO/fragment) for probe 1 labeling [1]: 1.0
R value (DMSO/fragment) for probe 1 labeling ([2]; P61221_K191): 0.9
R value (DMSO/fragment) for probe 1 labeling ([2]; P61221_K478): 1.2

O=C(Oc1c(F)c(F)c(F)c(F)c1F)c1cc(C(F)(F)F)cc(C(F)(F)F)c1 [fragment 21, Pentafluorophenyl 3,5-bis(trifluoromethyl)benzoate]
R value (DMSO/fragment) for probe 1 labeling ([2]; P61221_K191): 1.0

Cn1cc(CC(=O)Oc2c(F)c(F)c(F)c(F)c2F)c2ccccc21 [fragment 22, Pentafluorophenyl 2-(1-methyl-1H-indol-3-yl)acetate]
R value (DMSO/fragment) for probe 1 labeling [1]: 1.4
R value (DMSO/fragment) for probe 1 labeling ([2]; P61221_K191): 1.5
R value (DMSO/fragment) for probe 1 labeling ([2]; P61221_K478): 1.6

COc1cc(CCC(=O)Oc2c(F)c(F)c(F)c(F)c2F)cc(OC)c1OC [fragment 23, Pentafluorophenyl 3-(3,4,5-trimethoxyphenyl)propanoate]
R value (DMSO/fragment) for probe 1 labeling [1]: 1.7
R value (DMSO/fragment) for probe 1 labeling ([2]; P61221_K191): 1.3
R value (DMSO/fragment) for probe 1 labeling ([2]; P61221_K478): 1.5

O=C(Oc1c(F)c(F)c(F)c(F)c1F)C1CCN(C(=O)OCc2ccccc2)CC1 [fragment 24, 1-Benzyl 4-(pentafluorophenyl) piperidine-1,4-dicarboxylate]
isoTOP-ABPP reactivity ratio at lysine P52594_K134 [1]: 1.5
isoTOP-ABPP reactivity ratio at lysine P61221_K478 [2]: 1.4

O=C(Oc1c(F)c(F)c(F)c(F)c1F)c1ccc2ccccc2n1 [fragment 25, Pentafluorophenyl quinoline-2-carboxylate]
isoTOP-ABPP reactivity ratio at lysine P52594_K134 [1]: 1.1
isoTOP-ABPP reactivity ratio at lysine P61221_K191 [2]: 1.7
isoTOP-ABPP reactivity ratio at lysine P61221_K478 [2]: 1.5

O=C(CCc1coc2cc(F)ccc2c1=O)Oc1c(F)c(F)c(F)c(F)c1F [fragment 26, Pentafluorophenyl 3-(7-fluoro-4-oxo-4H-chromen-3-yl)propanoate]
isoTOP-ABPP reactivity ratio at lysine P52594_K134 [1]: 2.2
isoTOP-ABPP reactivity ratio at lysine P61221_K191 [2]: 1.4
isoTOP-ABPP reactivity ratio at lysine P61221_K478 [2]: 1.3

O=C(CN1C(=O)c2ccccc2C1=O)Oc1c(F)c(F)c(F)c(F)c1F [fragment 27, Pentafluorophenyl 2-(1,3-dioxoisoindolin-2-yl)acetate]
isoTOP-ABPP reactivity ratio at lysine P52594_K134 [1]: 1.5
isoTOP-ABPP reactivity ratio at lysine P61221_K478 [2]: 2.1

CCn1cc(C(=O)Oc2c(F)c(F)c(F)c(F)c2F)c(=O)c2ccc(C)nc21 [fragment 28, Pentafluorophenyl 1-ethyl-7-methyl-4-oxo-1,4-dihydro-1,8-naphthyridine-3-carboxylate]
isoTOP-ABPP reactivity ratio at lysine P52594_K134 [1]: 1.0
isoTOP-ABPP reactivity ratio at lysine P61221_K478 [2]: 1.0

O=C(CCc1cn(-c2ccccc2)nc1-c1ccccc1)Oc1ccc([N+](=O)[O-])cc1[N+](=O)[O-] [fragment 29, 2,4-Dinitrophenyl 3-(1,3-diphenyl-1H-pyrazol-4-yl)propanoate]
isoTOP-ABPP reactivity ratio at lysine P52594_K134 [1]: 1.4
isoTOP-ABPP reactivity ratio at lysine P61221_K191 [2]: 1.0
isoTOP-ABPP reactivity ratio at lysine P61221_K478 [2]: 1.2

O=C(Oc1ccc([N+](=O)[O-])cc1[N+](=O)[O-])C(c1ccccc1)c1ccccc1 [fragment 30, 2,4-Dinitrophenyl 2,2-diphenylacetate]
isoTOP-ABPP reactivity ratio at lysine P52594_K134 [1]: 14.3
isoTOP-ABPP reactivity ratio at lysine P61221_K191 [2]: 1.1
isoTOP-ABPP reactivity ratio at lysine P61221_K478 [2]: 1.1

O=C(Oc1ccc([N+](=O)[O-])cc1[N+](=O)[O-])c1cc(C(F)(F)F)cc(C(F)(F)F)c1 [fragment 31, 2,4-Dinitrophenyl 3,5-bis(trifluoromethyl)benzoate]
isoTOP-ABPP reactivity ratio at lysine P52594_K134 [1]: 1.2
isoTOP-ABPP reactivity ratio at lysine P61221_K191 [2]: 1.4
isoTOP-ABPP reactivity ratio at lysine P61221_K478 [2]: 1.1

Cn1cc(CC(=O)Oc2ccc([N+](=O)[O-])cc2[N+](=O)[O-])c2ccccc21 [fragment 32, 2,4-Dinitrophenyl 2-(1-methyl-1H-indol-3-yl)acetate]
isoTOP-ABPP reactivity ratio at lysine P52594_K134 [1]: 19.9
isoTOP-ABPP reactivity ratio at lysine P61221_K191 [2]: 1.3
isoTOP-ABPP reactivity ratio at lysine P61221_K478 [2]: 1.2

COc1cc(CCC(=O)Oc2ccc([N+](=O)[O-])cc2[N+](=O)[O-])cc(OC)c1OC [fragment 33, 2,4-Dinitrophenyl 3-(3,4,5-trimethoxyphenyl)propanoate]
isoTOP-ABPP reactivity ratio at lysine P52594_K134 [1]: 20.0
isoTOP-ABPP reactivity ratio at lysine P61221_K191 [2]: 1.1
isoTOP-ABPP reactivity ratio at lysine P61221_K478 [2]: 1.2

O=C(Oc1ccc([N+](=O)[O-])cc1[N+](=O)[O-])C1CCN(C(=O)OCc2ccccc2)CC1 [fragment 34, 1-Benzyl 4-(2,4-dinitrophenyl) piperidine-1,4-dicarboxylate]
isoTOP-ABPP ratio (R) at liganded lysine P52594_K134 [1]: 20.0
isoTOP-ABPP ratio (R) at liganded lysine P61221_K191 [2]: 1.0
isoTOP-ABPP ratio (R) at liganded lysine P61221_K478 [2]: 1.2

O=C(Oc1ccc([N+](=O)[O-])cc1[N+](=O)[O-])c1ccc2ccccc2n1 [fragment 35, 2,4-Dinitrophenyl quinoline-2-carboxylate]
isoTOP-ABPP ratio (R) at liganded lysine P61221_K191 [2]: 1.1
isoTOP-ABPP ratio (R) at liganded lysine P61221_K478 [2]: 1.1

O=C(CCc1coc2cc(F)ccc2c1=O)Oc1ccc([N+](=O)[O-])cc1[N+](=O)[O-] [fragment 36, 2,4-Dinitrophenyl 3-(7-fluoro-4-oxo-4H-chromen-3-yl)propanoate]
isoTOP-ABPP ratio (R) at liganded lysine P52594_K134 [1]: 20.0
isoTOP-ABPP ratio (R) at liganded lysine P61221_K191 [2]: 1.0
isoTOP-ABPP ratio (R) at liganded lysine P61221_K478 [2]: 1.1

O=C(Oc1ccc([N+](=O)[O-])cc1[N+](=O)[O-])c1ccc(-c2ccccc2)cc1 [fragment 37, 2,4-Dinitrophenyl [1,1′-biphenyl]-4-carboxylate]
isoTOP-ABPP ratio (R) at liganded lysine P52594_K134 [1]: 1.1
isoTOP-ABPP ratio (R) at liganded lysine P61221_K191 [2]: 0.9
isoTOP-ABPP ratio (R) at liganded lysine P61221_K478 [2]: 1.0

O=C(CC12CC3CC(CC(C3)C1)C2)Oc1ccc([N+](=O)[O-])cc1[N+](=O)[O-] [fragment 38, 2,4-Dinitrophenyl 2-(adamantan-1-yl)acetate]
isoTOP-ABPP ratio (R) at liganded lysine P52594_K134 [1]: 1.4
isoTOP-ABPP ratio (R) at liganded lysine P61221_K478 [2]: 0.9

O=C(Oc1c(F)c(F)c(C(F)(F)F)c(F)c1F)c1cc(C(F)(F)F)cc(C(F)(F)F)c1 [fragment 47, 2,3,5,6-Tetrafluoro-4-(trifluoromethyl)phenyl 3,5-bis(trifluoromethyl)benzoate]
isoTOP-ABPP ratio, lysine P61221_K191 ([2]; 50 uM_231_sol_in vitro): 1.7
isoTOP-ABPP ratio, lysine P61221_K478 ([2]; 50 uM_231_sol_in vitro): 1.4
